pEC50: −log10 of the molar value. Read-outs that look alike come from different tables or passages of the source.
Test system: recombinant NL4-3 virus (Renilla luciferase in nef, Gag P373S)
Experiment: HIV Cell Culture Assay (luciferase reporter virus in MT-2 cells)
Format: cell-based
Summary of the method: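 Read-out is Renilla luciferase, measured immediately after adding a premixed lysis/Dual Luciferase reagent. The reporter virus, NL4-3 with luciferase replacing part of nef plus Gag P373S, infected MT-2 cells for 4–5 days under serially diluted inhibitor.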

| Compound | pEC50 (NL43, read-out: EC50 Group) | pEC50 (NL43) |
| --- | --- | --- |
| C=C(C)[C@@H]1CC[C@]2(C(=O)NCCO)CC[C@]3(C)[C@H](CC[C@@H]4[C@@]5(C)CC=C(c6ccc(C(=O)O)cc6)C(C)(C)[C@@H]5CC[C@]43C)[C@@H]12 [Example 17, 4-((1R,3aS,5aR,5bR,7aR,11aS,11bR,13aR,13bR)-3a-(2-hydroxyethylcarbamoyl)-5a,5b,8,8,11a-pentamethyl-1-(prop-1-en-2-yl)-2,3,3a,4,5,5a,5b,6,7,7a,8,11,11a,11b,12,13,13a,13b-octadecahydro-1H-cyclopenta[a]chrysen-9-yl)benzoic acid] | > 7.00 | – |
| C=C(C)[C@@H]1CC[C@]2(C(=O)NCCCN(CC)CCCC(=O)O)CC[C@]3(C)[C@H](CC[C@@H]4[C@@]5(C)CC=C(c6ccc(C(=O)O)cc6)C(C)(C)[C@@H]5CC[C@]43C)[C@@H]12 [Example 101, 4-((1R,3aS,5aR,5bR,7aR,11aS,11bR,13aR,13bR)-3a-(3-((3-carboxypropyl)(ethyl)amino)propylcarbamoyl)-5a,5b,8,8,11a-pentamethyl-1-(prop-1-en-2-yl)-2,3,3a,4,5,5a,5b,6,7,7a,8,11,11a,11b,12,13,13a,13b-octadecahydro-1H-cyclopenta[a]chrysen-9-yl)benzoic acid] | > 7.00 | – |
| C=C(C)[C@@H]1CC[C@]2(C(=O)NCCN(C(C)C)C(C)C)CC[C@]3(C)[C@H](CC[C@@H]4[C@@]5(C)CC=C(c6ccc(C(=O)O)cc6)C(C)(C)[C@@H]5CC[C@]43C)[C@@H]12 [Example 67, 4-((1R,3aS,5aR,5bR,7aR,11aS,11bR,13aR,13bR)-3a-(2-(diisopropylamino)ethylcarbamoyl)-5a,5b,8,8,11a-pentamethyl-1-(prop-1-en-2-yl)-2,3,3a,4,5,5a,5b,6,7,7a,8,11,11a,11b,12,13,13a,13b-octadecahydro-1H-cyclopenta[a]chrysen-9-yl)benzoic acid] | – | 8.42 |
| C=C(C)[C@@H]1CC[C@]2(C(=O)NCCN(C)CCO)CC[C@]3(C)[C@H](CC[C@@H]4[C@@]5(C)CC=C(c6ccc(C(=O)O)cc6)C(C)(C)[C@@H]5CC[C@]43C)[C@@H]12 [Example 73, 4-((1R,3aS,5aR,5bR,7aR,11aS,11bR,13aR,13bR)-3a-(2-((2-hydroxyethyl)(methyl)amino)ethylcarbamoyl)-5a,5b,8,8,11a-pentamethyl-1-(prop-1-en-2-yl)-2,3,3a,4,5,5a,5b,6,7,7a,8,11,11a,11b,12,13,13a,13b-octadecahydro-1H-cyclopenta[a]chrysen-9-yl)benzoic acid] | > 7.00 | – |
| C=C(C)[C@@H]1CC[C@]2(C(=O)NCCN3CCN(C)CC3)CC[C@]3(C)[C@H](CC[C@@H]4[C@@]5(C)CC=C(c6ccc(C(=O)O)cc6)C(C)(C)[C@@H]5CC[C@]43C)[C@@H]12 [Example 36, 4-((1R,3aS,5aR,5bR,7aR,11aS,11bR,13aR,13bR)-5a,5b,8,8,11a-pentamethyl-3a-(2-(4-methylpiperazin-1-yl)ethylcarbamoyl)-1-(prop-1-en-2-yl)-2,3,3a,4,5,5a,5b,6,7,7a,8,11,11a,11b,12,13,13a,13b-octadecahydro-1H-cyclopenta[a]chrysen-9-yl)benzoic acid] | > 7.00 | – |
| C=C(C)[C@@H]1CC[C@]2(C(=O)NCc3nccs3)CC[C@]3(C)[C@H](CC[C@@H]4[C@@]5(C)CC=C(c6ccc(C(=O)O)cc6)C(C)(C)[C@@H]5CC[C@]43C)[C@@H]12 [Example 41, 4-((1R,3aS,5aR,5bR,7aR,11aS,11bR,13aR,13bR)-5a,5b,8,8,11a-pentamethyl-1-(prop-1-en-2-yl)-3a-(thiazol-2-ylmethylcarbamoyl)-2,3,3a,4,5,5a,5b,6,7,7a,8,11,11a,11b,12,13,13a,13b-octadecahydro-1H-cyclopenta[a]chrysen-9-yl)benzoic acid] | > 7.00 | – |
| CN(C)CCNC(=O)[C@]12CCC(C)(C)C[C@H]1C1=CC[C@@H]3[C@@]4(C)CC=C(c5ccc(C(=O)O)cc5)C(C)(C)[C@@H]4CC[C@@]3(C)[C@]1(C)CC2 [Example B1, 4-((4aR,6aR,6bS,8aS,12aS,14aR,14bS)-8a-(2-(dimethylamino)ethylcarbamoyl)-4,4,6a,6b,11,11,14b-heptamethyl-1,4,4a,5,6,6a,6b,7,8,8a,9,10,11,12,12a,14,14a,14b-octadecahydropicen-3-yl)benzoic acid] | > 7.00 | – |
| C=C(C)[C@@H]1CC[C@]2(C(=O)NCc3nc4ccccc4s3)CC[C@]3(C)[C@H](CC[C@@H]4[C@@]5(C)CC=C(c6ccc(C(=O)O)cc6)C(C)(C)[C@@H]5CC[C@]43C)[C@@H]12 [Example 45, 4-((1R,3aS,5aR,5bR,7aR,11aS,11bR,13aR,13bR)-3a-(benzo[d]thiazol-2-ylmethylcarbamoyl)-5a,5b,8,8,11a-pentamethyl-1-(prop-1-en-2-yl)-2,3,3a,4,5,5a,5b,6,7,7a,8,11,11a,11b,12,13,13a,13b-octadecahydro-1H-cyclopenta[a]chrysen-9-yl)benzoic acid] | > 7.00 | – |
| C=C(C)[C@@H]1CC[C@]2(C(=O)NCCN(C)CC(=O)O)CC[C@]3(C)[C@H](CC[C@@H]4[C@@]5(C)CC=C(c6ccc(C(=O)O)cc6)C(C)(C)[C@@H]5CC[C@]43C)[C@@H]12 [Example 80, 4-((1R,3aS,5aR,5bR,7aR,11aS,11bR,13aR,13bR)-3a-(2-((carboxymethyl)(methyl)amino)ethylcarbamoyl)-5a,5b,8,8,11a-pentamethyl-1-(prop-1-en-2-yl)-2,3,3a,4,5,5a,5b,6,7,7a,8,11,11a,11b,12,13, 13a,13b-octadecahydro-1H-cyclopenta[a]chrysen-9-yl)benzoic acid] | > 7.00 | – |
| C=C(C)[C@@H]1CC[C@]2(C(=O)NCCCn3ccnc3)CC[C@]3(C)[C@H](CC[C@@H]4[C@@]5(C)CC=C(c6ccc(C(=O)O)cc6)C(C)(C)[C@@H]5CC[C@]43C)[C@@H]12 [Example 86, 4-((1R,3aS,5aR,5bR,7aR,11aS,11bR,13aR,13bR)-3a-(3-(1H-imidazol-1-yl)propylcarbamoyl)-5a,5b,8,8,11a-pentamethyl-1-(prop-1-en-2-yl)-2,3,3a,4,5,5a,5b,6,7,7a,8,11,11a,11b,12,13,13a,13b-octadecahydro-1H-cyclopenta[a]chrysen-9-yl)benzoic acid] | > 7.00 | – |
| C=C(C)[C@@H]1CC[C@]2(C(=O)N[C@@H](CN(C)C)C(=O)O)CC[C@]3(C)[C@H](CC[C@@H]4[C@@]5(C)CC=C(c6ccc(C(=O)O)cc6)C(C)(C)[C@@H]5CC[C@]43C)[C@@H]12 [Example 65, 4-((1R,3aS,5aR,5bR,7aR,11aS,11bR,13aR,13bR)-3a-((S)-1-carboxy-2-(dimethylamino)ethylcarbamoyl)-5a,5b,8,8,11a-pentamethyl-1-(prop-1-en-2-yl)-2,3,3a,4,5,5a,5b,6,7,7a,8,11,11a,11b,12,13,13a,13b-octadecahydro-1H-cyclopenta[a]chrysen-9-yl)benzoic acid] | > 7.00 | – |
| C[C@H]1[C@H](C)CC[C@]2(C(=O)NCCCN3CCS(=O)(=O)CC3)CC[C@]3(C)C(=CC[C@@H]4[C@@]5(C)CC=C(c6ccc(C(=O)O)cc6)C(C)(C)[C@@H]5CC[C@]43C)[C@H]12 [Example A2, 4-((4aR,6aR,6bS,8aS,11R,12S,12aS,14aR,14bS)-8a-((3-(1,1-dioxido-4-thiomorpholinyl)propyl)carbamoyl)-4,4,6a,6b,11,12,14b-heptamethyl-1,4,4a,5,6,6a,6b,7,8,8a,9,10,11,12,12a,14,14a,14b-octadecahydro-3-picenyl)benzoic acid] | > 7.00 | – |

— US8802661B2, “C-28 amides of modified C-3 betulinic acid derivatives as HIV maturation inhibitors” (priority 2010, dated 2014)
